For orientation: MIC means the smallest concentration in the dilution series that meets the test's criterion for growth inhibition.

The test deals with Eschericia coli (E. coli) strain ATCC25922. Put plainly: Standard microdilution assay, MIC against E. coli ATCC25922. It is filed as cell-based. Conditions: Escherichia coli; E. coli strain ATCC25922, standard microdilution assay; cutoff 16 micrograms/mL; read-out: MIC E. Coli. A digest of the protocol: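 MIC determined by broth microdilution following CLSI protocols, with reference strains run in parallel for quality control. Activity scored +/− at a cutoff of 16 micrograms/mL.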
(Broth dilution looks for growth in wells or tubes with falling amounts of substance.)
In the case of `COc1ccc(Cn2cc(CNCc3ccc(-n4cc5cc(-c6cc(CCC[C@H](C)N)cc(Cl)c6F)[nH]c5nc4=O)cc3)nn2)cc1` [Compound 120], the MIC is over 16 µg/mL.

As to `C=CC[C@@H](CCN[C@@H](C)c1ccc(-n2cc3cc(-c4cc(CCC[C@H](C)N)cc(OC(F)(F)F)c4F)[nH]c3nc2=O)cc1)NC(=N)N` [Compound 261], the MIC is under 16 µg/mL.

With `C[C@H](N)CCCc1cc(Cl)c(F)c(-c2cc3cn(-c4ccc(CN[C@H](C)CCNC(=N)N)cc4)c(=O)nc3[nH]2)c1` [Compound 209], the MIC is under 16 µg/mL.

`C[C@H](N)CCCc1cc(OC(F)(F)F)c(F)c(-c2cc3cn(-c4ccc([C@H](C)N[C@@H](C)CCNC(=N)N)cc4)c(=O)nc3[nH]2)c1` [Compound 232]: the MIC was under 16 µg/mL.

In the case of `C[C@H](N)CCCc1cc(Cl)c(F)c(-c2cc3cn(-c4ccc([C@H](C)NCC[C@@H](Cc5c[nH]nn5)NC(=N)N)cc4)c(=O)nc3[nH]2)c1` [Compound 266], the MIC is under 16 µg/mL.

With `C[C@H](N)CCCc1cc(SC(F)(F)F)cc(-c2cc3cn(-c4ccc(CNCCC(C)(C)N)cc4)c(=O)nc3[nH]2)c1` [Compound 176], the MIC was under 16 µg/mL.

For the compound `C[C@H](N)CCCc1cc(Cl)c(F)c(-c2cc3cn(-c4ccc(CNCc5c[nH]nn5)cc4)c(=O)nc3[nH]2)c1` [Compound 119], the MIC was over 16 µg/mL.

In the case of `C[C@H](N)CCCc1cc(Cl)c(F)c(-c2cc3cn(-c4ccc([C@H](CCO)NCCCNC(=N)N)cc4)c(=O)nc3[nH]2)c1` [Compound 15], the MIC was under 16 µg/mL.

`C[C@H](NCCCNC(=N)N)c1ccc(-n2cc3cc(-c4cc(CCC[C@@H](N)COC(=O)NCc5ccccc5)cc(Cl)c4F)[nH]c3nc2=O)cc1` [Compound 306]: the MIC is under 16 µg/mL.

As to `C[C@H](N)CCCc1cc(Cl)c(F)c(-c2cc3cn(-c4ccc(CNCc5ccc(=O)[nH]c5)cc4)c(=O)nc3[nH]2)c1` [Compound 149], the MIC is over 16 µg/mL.

As to `CCc1c(F)c(CCC[C@H](C)N)cc(-c2cc3cn(-c4ccc([C@H](C)NCCCN)cc4)c(=O)nc3[nH]2)c1F` [Compound 217], the MIC is under 16 µg/mL.

Take `C[C@H](N)CCCc1cc(Cl)c(F)c(-c2cc3cn(-c4ccc([C@@H](NCCCNC(=N)N)C(=O)N5CCNCC5)cc4)c(=O)nc3[nH]2)c1` [Compound 12]: the MIC was under 16 µg/mL.

With `C=C[C@H](N)CC[C@@H](O)c1cc(SC(F)(F)F)cc(-c2cc3cn(-c4ccc([C@H](C)NCCCNC(=N)N)cc4)c(=O)nc3[nH]2)c1` [Compound 78], the MIC is under 16 µg/mL.

With `O=c1nc2[nH]ccc2cn1-c1ccc(CNCc2ccncc2)cc1` [Compound 126], the MIC was over 16 µg/mL.

For the compound `C[C@H](N)CCCc1cc(-c2cc3cn(-c4ccc([C@H](C)NCCCN(C)C(=N)N)cc4)c(=O)nc3[nH]2)cc(C(F)(F)F)c1` [Compound 211], the MIC was under 16 µg/mL.

Turning to `C[C@H](N)CCCc1cc(Cl)c(F)c(-c2cc3cn(-c4ccc([C@H](C)N[C@H](C)CCNC(=N)N)cc4)c(=O)nc3[nH]2)c1` [Compound 225], the MIC is under 16 µg/mL.

Regarding `C[C@H](N)CCCc1cc(Cl)c(F)c(-c2cc3cn(-c4ccc([C@@H](CCN)NCCCNC(=N)N)cc4)c(=O)nc3[nH]2)c1` [Compound 2], the MIC is under 16 µg/mL.

On to `C=C[C@@H](CCNCc1ccc(-n2cc3cc(-c4cc(CCC[C@H](C)N)cc(Cl)c4F)[nH]c3nc2=O)cc1)NC(=N)N` [Compound 177], for which the MIC is under 16 µg/mL.

In the case of `COc1ccc(CNCc2ccc(-n3cc4cc(-c5cc(CCC[C@H](C)N)cc(SC(F)(F)F)c5)[nH]c4nc3=O)cc2)cn1` [Compound 146], the MIC is over 16 µg/mL.

For the compound `C[C@H](N)CCCc1cc(OC(F)(F)F)c(F)c(-c2cc3cn(-c4ccc(CN[C@H](C)CCNC(=N)N)cc4)c(=O)nc3[nH]2)c1` [Compound 228], the MIC was under 16 µg/mL.

In the case of `C[C@H](N)CCCc1cc(-c2cc3cn(-c4ccc([C@H](C)NCC[C@@H](C)NC(=N)N)cc4)c(=O)nc3[nH]2)cc(C(F)(F)F)c1` [Compound 200], the MIC is under 16 µg/mL.

For the compound `C[C@H](N)CCCc1cc(Cl)c(F)c(-c2cc3cn(-c4ccc([C@H](C)NCC[C@H](CCO)NC(=N)N)cc4)c(=O)nc3[nH]2)c1` [Compound 244], the MIC is under 16 µg/mL.

Regarding `C[C@H](N)CCCc1cc(Cl)c(F)c(-c2cc3cn(-c4ccc(CNCc5cccnc5)cc4)c(=O)nc3[nH]2)c1` [Compound 112], the MIC is over 16 µg/mL.

With `C[C@H](N)CCCc1cc(OC(F)(F)F)c(F)c(-c2cc3cn(-c4ccc([C@H](N)CCCCNC(=N)N)cc4)c(=O)nc3[nH]2)c1` [Compound 234], the MIC is under 16 µg/mL.

`C[C@H](N)CCCc1cc(OC(F)(F)F)c(F)c(-c2cc3cn(-c4ccc([C@H](C)NCC[C@H](Cc5c[nH]nn5)NC(=N)N)cc4)c(=O)nc3[nH]2)c1` [Compound 269]: the MIC was under 16 µg/mL.

As for `C[C@H](N)CCCc1cc(-c2cc3cn(-c4ccc([C@@H](NCCCNC(=N)N)C(=O)N5CCNCC5)cc4)c(=O)nc3[nH]2)cc(C(F)(F)F)c1` [Compound 13], the MIC is under 16 µg/mL.

Consider `C[C@H](N)CCCc1cc(Cl)c(F)c(-c2cc3cn(-c4ccc(CNCC[C@@H]5CN=C(N)N5)cc4)c(=O)nc3[nH]2)c1` [Compound 204], for which the MIC is under 16 µg/mL.

Take `C[C@H](N)CCCc1cc(OC(F)(F)F)c(F)c(-c2cc3cn(-c4ccc([C@H](C)NCC[C@H](CN)NC(=N)N)cc4)c(=O)nc3[nH]2)c1` [Compound 305]: the MIC was under 16 µg/mL.

`COCC[C@H](NCCCNC(=N)N)c1ccc(-n2cc3cc(-c4cc(CCC[C@H](C)N)cc(Cl)c4F)[nH]c3nc2=O)cc1` [Compound 29]: the MIC is under 16 µg/mL.

As for `C[C@H](N)CCCc1cc(Cl)c(F)c(-c2cc3cn(-c4ccc([C@H](C)NCC[C@@H](C)N)cc4)c(=O)nc3[nH]2)c1` [Compound 193], the MIC was under 16 µg/mL.

For the compound `CNCCNCc1ccc(-n2cc3cc(-c4cc(CCC[C@H](C)N)cc(Cl)c4F)[nH]c3nc2=O)cc1` [Compound 123], the MIC is under 16 µg/mL.

For the compound `C[C@H](NCCCNC(=N)N)c1ccc(-n2cc3cc(-c4cc(CCC[C@@H](N)COC(=O)c5ccccc5)cc(Cl)c4F)[nH]c3nc2=O)cc1` [Compound 300], the MIC is under 16 µg/mL.

`C=CC[C@@H](CCNCc1ccc(-n2cc3cc(-c4cc(CCC[C@H](C)N)cc(Cl)c4F)[nH]c3nc2=O)cc1)NC(=N)N` [Compound 202]: the MIC was under 16 µg/mL.

Turning to `C[C@H](N)CCCc1cc(OC(F)(F)F)c(F)c(-c2cc3cn(-c4ccc([C@H](C)NCC[C@H](CCO)NC(=N)N)cc4)c(=O)nc3[nH]2)c1` [Compound 245], the MIC is under 16 µg/mL.

As for `C[C@H](N)CCCc1cc(SC(F)(F)F)cc(-c2cc3cn(-c4ccc([C@H](CO)NCCCNC(=N)N)cc4)c(=O)nc3[nH]2)c1` [Compound 104], the MIC is under 16 µg/mL.

`C[C@H](N)CCCc1cc(Cl)c(F)c(-c2cc3cn(-c4ccc([C@H](C)NCC[C@@H](Cn5cccn5)NC(=N)N)cc4)c(=O)nc3[nH]2)c1` [Compound 279]: the MIC was under 16 µg/mL.

Take `C[C@H](N)CCCc1cc(Cl)c(F)c(-c2cc3cn(-c4ccc(CN[C@@H](C)CCN)cc4)c(=O)nc3[nH]2)c1` [Compound 196]: the MIC was under 16 µg/mL.

For the compound `C[C@H](N)CC[C@@H](O)c1cc(SC(F)(F)F)cc(-c2cc3cn(-c4ccc([C@H](C)NCCCNC(=N)N)cc4)c(=O)nc3[nH]2)c1` [Compound 65], the MIC was under 16 µg/mL.

Take `C[C@H](N)CCCc1cc(OC(F)(F)F)c(F)c(-c2cc3cn(-c4ccc([C@H](C)NCC[C@H](CCCN)NC(=N)N)cc4)c(=O)nc3[nH]2)c1` [Compound 284]: the MIC is under 16 µg/mL.

`C[C@H](N)CCCc1cc(Cl)c(F)c(-c2cc3cn(-c4ccc([C@H](Cc5c[nH]nn5)NCCCNC(=N)N)cc4)c(=O)nc3[nH]2)c1` [Compound 46]: the MIC is under 16 µg/mL.

For `C[C@H](N)CCCc1cc(OC(F)(F)F)c(F)c(-c2cc3cn(-c4ccc([C@H](C)NCC[C@@H](Cc5c[nH]nn5)NC(=N)N)cc4)c(=O)nc3[nH]2)c1` [Compound 268], the MIC is under 16 µg/mL.

With `C=C[C@H](N)COCc1cc(SC(F)(F)F)cc(-c2cc3cn(-c4ccc([C@H](C)NCCCNC(=N)N)cc4)c(=O)nc3[nH]2)c1` [Compound 63], the MIC was under 16 µg/mL.

In the case of `C[C@H](N)CCCc1cc(SC(F)(F)F)cc(-c2cc3cn(-c4ccc([C@@H](NCCCNC(=N)N)C(N)=O)cc4)c(=O)nc3[nH]2)c1` [Compound 58], the MIC is under 16 µg/mL.

In the case of `C[C@H](N)CCCc1cc(Cl)c(F)c(-c2cc3cn(-c4ccc([C@H](C)NCC[C@H](CS(C)(=O)=O)NC(=N)N)cc4)c(=O)nc3[nH]2)c1` [Compound 289], the MIC is under 16 µg/mL.

On to `C[C@H](N)CCCc1cc(Cl)c(F)c(-c2[nH]c3nc(=O)n(-c4ccc([C@H](C)NCCCNC(=N)N)cc4)cc3c2Br)c1` [Compound 286], for which the MIC is under 16 µg/mL.

As for `C[C@H](N)CCCc1cc(Cl)c(F)c(-c2cc3cn(-c4ccc([C@H](CCN)NCCCNC(=N)N)cc4)c(=O)nc3[nH]2)c1` [Compound 19], the MIC was under 16 µg/mL.

For the compound `COC[C@H](N)CCNCc1ccc(-n2cc3cc(-c4cc(CCC[C@H](C)N)cc(Cl)c4F)[nH]c3nc2=O)cc1` [Compound 178], the MIC was under 16 µg/mL.

Regarding `C[C@H](N)CCCc1cc(SC(F)(F)F)cc(-c2cc3cn(-c4ccc([C@@H](CCN)NCCCNC(=N)N)cc4)c(=O)nc3[nH]2)c1` [Compound 7], the MIC is under 16 µg/mL.

On to `C[C@H](N)CCCc1cc(Cl)c(F)c(-c2cc3cn(-c4ccc([C@H](Cc5cccnc5)NCCCNC(=N)N)cc4)c(=O)nc3[nH]2)c1` [Compound 56], for which the MIC is under 16 µg/mL.

On to `C[C@H](N)CCCc1cc(OC(F)(F)F)c(F)c(-c2cc3cn(-c4ccc([C@@H](N)C(=O)NCCNC(=N)N)cc4)c(=O)nc3[nH]2)c1` [Compound 257], for which the MIC was under 16 µg/mL.

Turning to `C[C@H](N)CCCc1cc(Cl)c(F)c(-c2cc3cn(-c4ccc(C[C@@H](CCCN)NC(=N)N)cc4)c(=O)nc3[nH]2)c1` [Compound 229], the MIC is under 16 µg/mL.

For the compound `CCc1c(F)c(CCC[C@H](C)N)cc(-c2cc3cn(-c4ccc([C@H](C)NCCCNC(=N)N)cc4)c(=O)nc3[nH]2)c1F` [Compound 218], the MIC was under 16 µg/mL.

Take `C[C@H](N)CCCc1cc(Cl)c(F)c(-c2cc3cn(-c4ccc([C@H](C)NCC[C@@H](CN)NC(=N)N)cc4)c(=O)nc3[nH]2)c1` [Compound 271]: the MIC is under 16 µg/mL.

The values are drawn from patent US10815238B2, “Antimicrobial compounds and methods of making and using the same” (BIOVERSYS AG, priority 2013, dated 2020).
